Experimental data from US20240108598A1, “Danegaptide for Use in the Treatment or Prevention of a Kidney Disease” (CIANA THERAPEUTICS APS, priority 2021, published 2024).

Experiments:
primary hPTECs [1] = test: Inflammation antibody array, cell lysates (Table 1); assay type: cell-based, human; settings: hPTEC lysate; TGF-β1 10 ng/mL + DG 100 nM, 48 h
Source text: An inflammation antibody array was used to assess regulation of 31 candidate inflammatory proteins in cell lysates from hPTEC cells treated with TGFβ1±danegaptide. Results are representative of 3 separate experiments and presented as mean±SEM, n=3 with key significances indicated (*P<0.05, **P<0.01, ***P<0.001; one-way ANOVA and Tukey's post-test).
(§1) A proteome profiler array (Human Cytokine Array Kit from R&D Systems, Oxfordshire, UK) was used, to determine if danegaptide negates TGFβ1-induced changes in expression and secretion of key pro-inflammatory mediators. Primary hPTECs were cultured as described above and treated with TGFβ1 (10 ng/mL)±danegaptide (100 nM) for 48 h.

primary hPTECs [2] = test: Inflammation antibody array, supernatant (Table 2); assay type: cell-based, human; settings: hPTEC supernatant; TGF-β1 10 ng/mL + DG 100 nM, 48 h
Source text: An inflammation antibody array was used to assess regulation of 31 candidate inflammatory proteins in supernatant from hPTEC cells treated with TGFβ1±danegaptide. Results are representative of 3 separate experiments and presented as mean±SEM, n=3 with key significances indicated (*P<0.05, **P<0.01, ***P<0.001; one-way ANOVA and Tukey's post-test).
as §1

Cx43 hemichannels = biological target: T1, Cx43 hemichannels (Homo sapiens, UniProt P17302); test: ATP biosensing (hemichannel mediated ATP release); assay type: cell-based; settings: for ATP release: hPTECs
T1 construct: host or cells: HK2 human kidney proximal tubule epithelial cell line
Procedure: HK2 cells were cultured in low (5 mM) glucose with/without TGFβ1 (10 ng/ml)±danegaptide (50 or 100 nM) for 48 h. Representative biosensor traces show ATP release following removal of extracellular calcium. […] Peak responses were quantified by comparing against a known concentration of ATP (10 μM) and mean data±SEM plotted (E). Results are representative of 3 separate experiments (n=3; **P<0.01, […] ***P<0.001; one-way ANOVA and Tukey's post-test).
ATP biosensors (Sarissa Biomedical, Coventry UK) were used in a simultaneous dual-recording ampomeric setup as described previously (Price, G. W.; Chadjichristos, C. E.; Kavvadas, P.; Tang, S. C. W.; Yiu, W. H.; Green, C. R.; Potter, J. A.; Siamantouras, E.; Squires, P. E.; Hills, C. E. Blocking Connexin-43 mediated hemichannel activity protects against early tubular injury in experimental chronic kidney disease. Cell Commun. Signal. 2020, 18). A null biosensor was used to account for non-specific electro-active artefacts and subtracted from the ATP trace. Glycerol (2 mM) was included in all recording solutions to enable ATP detection. HK2 cells were seeded on glass coverslips (10 mm diameter) in low glucose DMEM/F12 (5 mmol/L) for 48 h, prior to an overnight serum-starvation. The cells were then incubated with TGFβ1 (10 ng/ml)±danegaptide (100 nM) for 48 h. The coverslips were transferred to a chamber containing Ca^2+-containing BSS perfused at 6 ml/min (37° C.) and left for 10 min to acclimatise. ATP and null biosensors were bent and lowered so that the electrode laid parallel to the cellular monolayer. Once a stable baseline occurred, perfusion of Ca^2+-free BSS stimulated hemichannel opening. After ATP release, Ca^2+-containing BSS was used to close hemichannels, followed by a calibration solution of ATP ([…]). Recordings were acquired at 4 Hz with a Micro CED (Mark2) interface using Spike (v8.03) software.

T1 sequence (P17302 whole entry): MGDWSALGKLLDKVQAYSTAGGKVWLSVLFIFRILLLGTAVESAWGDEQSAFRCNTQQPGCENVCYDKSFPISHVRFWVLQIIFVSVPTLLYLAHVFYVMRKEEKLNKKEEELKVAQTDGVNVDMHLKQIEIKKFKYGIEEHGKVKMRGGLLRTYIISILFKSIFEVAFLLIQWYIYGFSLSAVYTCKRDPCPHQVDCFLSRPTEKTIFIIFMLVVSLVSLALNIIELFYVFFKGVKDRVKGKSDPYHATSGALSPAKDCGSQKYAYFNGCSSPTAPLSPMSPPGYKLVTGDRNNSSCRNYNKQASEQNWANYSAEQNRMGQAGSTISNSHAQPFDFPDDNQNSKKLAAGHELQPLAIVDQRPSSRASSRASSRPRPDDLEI

NCC(=O)N1C[C@H](NC(=O)c2ccccc2)C[C@H]1C(=O)O [danegaptide, (2S,4R)-1-(2-aminoacetyl)-4-benzamidopyrrolidine2-carboxylic acid]
Angiogenin in lysate (% compared to control) (primary hPTECs [1]): 100 ± 20.3% | Cystatin C in lysate (% compared to control) (primary hPTECs [1]): 123 ± 14.3% | DPPIV in lysate (% compared to control) (primary hPTECs [1]): 187 ± 25.2% | ENA 78 in lysate (% compared to control) (primary hPTECs [1]): 97 ± 18.2% | Endoglin in lysate (% compared to control) (primary hPTECs [1]): 72.3 ± 8.9^ % | FGF7 in lysate (% compared to control) (primary hPTECs [1]): 106 ± 15.2% | Flt 3 Ligand in lysate (% compared to control) (primary hPTECs [1]): 208 ± 31.4% | G-CSF in lysate (% compared to control) (primary hPTECs [1]): 126 ± 4.7% | GM-CSF in lysate (% compared to control) (primary hPTECs [1]): 136 ± 11.6% | HGF in lysate (% compared to control) (primary hPTECs [1]): 104.0 ± 9.0% | ICAM 1 in lysate (% compared to control) (primary hPTECs [1]): 80 ± 28.7% | IFNg in lysate (% compared to control) (primary hPTECs [1]): 112 ± 12.7% | IGFBP2 in lysate (% compared to control) (primary hPTECs [1]): 334 ± 66.1% | IGFBP3 in lysate (% compared to control) (primary hPTECs [1]): 97 ± 28.5% | IL1A in lysate (% compared to control) (primary hPTECs [1]): 80 ± 18.8% | IL3 in lysate (% compared to control) (primary hPTECs [1]): 129 ± 15.7% | IL8 in lysate (% compared to control) (primary hPTECs [1]): 122 ± 5.2% | IL12 p70 in lysate (% compared to control) (primary hPTECs [1]): 97 ± 4.6% | IL13 in lysate (% compared to control) (primary hPTECs [1]): 150 ± 46.0% | Kallikrein 3 in lysate (% compared to control) (primary hPTECs [1]): 67 ± 14.3% | LIF in lysate (% compared to control) (primary hPTECs [1]): 225 ± 82^ % | MCP-1 in lysate (% compared to control) (primary hPTECs [1]): 97.6 ± 13.9% | MMP9 in lysate (% compared to control) (primary hPTECs [1]): 95 ± 10.6% | PDGF-AA/BB in lysate (% compared to control) (primary hPTECs [1]): 95.2 ± 14.6% | RAGE in lysate (% compared to control) (primary hPTECs [1]): 105 ± 9.2% | RANTES in lysate (% compared to control) (primary hPTECs [1]): 104 ± 15.2% | Serpin E1 in lysate (% compared to control) (primary hPTECs [1]): 148 ± 28.5% | TFF3 in lysate (% compared to control) (primary hPTECs [1]): 132 ± 3.9% | TNF-α in lysate (% compared to control) (primary hPTECs [1]): 144 ± 18.5% | Thrombospondin-1 in lysate (% compared to control) (primary hPTECs [1]): 100 ± 19.8% | VEGF in lysate (% compared to control) (primary hPTECs [1]): 101 ± 16.4% | Angiogenin in supernatant (% compared to control) (primary hPTECs [2]): 129 ± 14.7% | Cystatin C in supernatant (% compared to control) (primary hPTECs [2]): 88 ± 6.8% | DPPIV in supernatant (% compared to control) (primary hPTECs [2]): 179 ± 37.8% | ENA 78 in supernatant (% compared to control) (primary hPTECs [2]): 119 ± 3.9% | Endoglin in supernatant (% compared to control) (primary hPTECs [2]): 94 ± 5.8% | FGF7 in supernatant (% compared to control) (primary hPTECs [2]): 102 ± 16.5% | Flt 3 Ligand in supernatant (% compared to control) (primary hPTECs [2]): 103 ± 12.8% | G-CSF in supernatant (% compared to control) (primary hPTECs [2]): 117 ± 12.0% | GM-CSF in supernatant (% compared to control) (primary hPTECs [2]): 114 ± 3.8% | HGF in supernatant (% compared to control) (primary hPTECs [2]): 88 ± 13.7% | ICAM-1 in supernatant (% compared to control) (primary hPTECs [2]): 124 ± 16.6% | IFNg in supernatant (% compared to control) (primary hPTECs [2]): 90 ± 12.7% | IGFBP-2 in supernatant (% compared to control) (primary hPTECs [2]): 90 ± 6.4% | IGFBP-3 in supernatant (% compared to control) (primary hPTECs [2]): 84.7 ± 14.3% | IL1A in supernatant (% compared to control) (primary hPTECs [2]): 89 ± 21.5% | IL3 in supernatant (% compared to control) (primary hPTECs [2]): 107 ± 38.0% | IL8 in supernatant (% compared to control) (primary hPTECs [2]): 99 ± 26.4% | IL12 p70 in supernatant (% compared to control) (primary hPTECs [2]): 63 ± 15.9% | IL13 in supernatant (% compared to control) (primary hPTECs [2]): 62 ± 27.2% | Kallikrein 3 in supernatant (% compared to control) (primary hPTECs [2]): 74 ± 20.6% | LIF in supernatant (% compared to control) (primary hPTECs [2]): 134 ± 5.4% | MCP-1 in supernatant (% compared to control) (primary hPTECs [2]): 101 ± 6.2% | MMP-9 in supernatant (% compared to control) (primary hPTECs [2]): 80 ± 8.9% | PDGF-AA/BB in supernatant (% compared to control) (primary hPTECs [2]): 99 ± 6.3% | RAGE in supernatant (% compared to control) (primary hPTECs [2]): 99 ± 12.5% | RANTES in supernatant (% compared to control) (primary hPTECs [2]): 101 ± 12.1% | Serpin E1 in supernatant (% compared to control) (primary hPTECs [2]): 81 ± 42.8% | TFF3 in supernatant (% compared to control) (primary hPTECs [2]): 98 ± 17.5% | TNF-α in supernatant (% compared to control) (primary hPTECs [2]): 139 ± 6.1% | Thrombospondin-1 in supernatant (% compared to control) (primary hPTECs [2]): 115 ± 11.9% | VEGF in supernatant (% compared to control) (primary hPTECs [2]): 217 ± 49.3% | optimal concentration in the microenvironment (dose finding, dye uptake and ATP biosensing) (Cx43 hemichannels; HK2 cells): 50 to 100 nM | ATP release (Cx43 hemichannels; TGFβ1 10 ng/mL + danegaptide 50 nM, 48 h): 1.90 ± 0.26 µM | ATP release (Cx43 hemichannels; TGFβ1 10 ng/mL + danegaptide 100 nM, 48 h): 0.79 ± 0.19 µM | ATP release (Cx43 hemichannels; danegaptide alone 50 nM): 0.35 ± 0.10 µM | ATP release (Cx43 hemichannels; danegaptide alone 100 nM): 0.31 ± 0.09 µM
